ChEMBL document CHEMBL1201862, “PubChem BioAssay data set” (2004)
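Five compound concentrations were applied to cells in 96-well plates for 48 hours; endpoints were derived by simple linear interpolation of the resulting dose-response curve. GI50: concentration for 50% inhibition of growth.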 Calls of active or inactive are those of the source. No stated cut-off is given here; in the data, active = GI50 up to about 1.1 µM and inactive = higher.

Assays:
Assay in all cases: NCI-60 cell line screen, 48 h
UO-31 = test system: UO-31
SNB-19 = test system: SNB-19
UACC-62 = test system: UACC-62
NCI-H23 = test system: NCI-H23
HT-29 = test system: HT-29
HCT-116 = test system: HCT-116
TK-10 = test system: TK-10
RXF 393 = test system: RXF 393
ACHN = test system: ACHN
A498 = test system: A498
SF-295 = test system: SF-295
NCI-H522 = test system: NCI-H522
SN12C = test system: SN12C
OVCAR-8 = test system: OVCAR-8
CCRF-CEM = test system: CCRF-CEM
SK-OV-3 = test system: SK-OV-3
RPMI-8226 = test system: RPMI-8226

Measured: GI50

Cc1cccc(NC(=O)CSc2nnc(Cc3ccccc3)o2)c1
inactive: UO-31 > 100 µM | SNB-19 > 100 µM | UACC-62 > 100 µM | NCI-H23 > 100 µM | HT-29 > 100 µM | HCT-116 > 100 µM | TK-10 > 100 µM | RXF 393 > 100 µM | ACHN > 100 µM | A498 > 100 µM | SF-295 > 100 µM | NCI-H522 > 100 µM | SN12C > 100 µM | OVCAR-8 > 100 µM | CCRF-CEM > 100 µM | SK-OV-3 > 100 µM

Cc1occ2c1C(=O)CC1C2[C@@H](O)CC2C(C)(C)CCC[C@]12C (some centres not stated)
inactive: UO-31 > 100 µM | SNB-19 > 100 µM | UACC-62 95.7 µM | NCI-H23 > 100 µM | HT-29 > 100 µM | HCT-116 > 100 µM | RPMI-8226 55.6 µM | RXF 393 > 100 µM | ACHN > 100 µM | A498 > 100 µM | SF-295 > 100 µM | NCI-H522 56.5 µM | SN12C > 100 µM | OVCAR-8 > 100 µM | CCRF-CEM 42.7 µM | SK-OV-3 > 100 µM

O=C(CC1(O)C(=O)Nc2ccccc21)c1ccccc1Cl (configuration not stated)
inactive: UO-31 64.9 µM | SNB-19 > 100 µM | UACC-62 > 100 µM | NCI-H23 > 100 µM | HT-29 > 100 µM | HCT-116 > 100 µM | RPMI-8226 > 100 µM | TK-10 > 100 µM | RXF 393 > 100 µM | ACHN > 100 µM | A498 > 100 µM | SF-295 > 100 µM | NCI-H522 76.6 µM | SN12C > 100 µM | OVCAR-8 > 100 µM | SK-OV-3 > 100 µM

COC(=O)C(=O)C(CC(=O)Nc1c(C)cccc1C)C(=O)OC (configuration not stated)
inactive: UO-31 > 100 µM | SNB-19 > 100 µM | UACC-62 > 100 µM | NCI-H23 > 100 µM | HT-29 > 100 µM | HCT-116 > 100 µM | RPMI-8226 > 100 µM | TK-10 > 100 µM | RXF 393 > 100 µM | ACHN > 100 µM | SF-295 > 100 µM | NCI-H522 > 100 µM | SN12C > 100 µM | OVCAR-8 > 100 µM | CCRF-CEM > 100 µM | SK-OV-3 > 100 µM

Cc1ccc(C2=Nc3ccccc3[S+]([O-])C(c3ccc4c(c3)OCO4)C2)cc1 (configuration not stated)
inactive: UO-31 40.8 µM | SNB-19 58.7 µM | UACC-62 18.3 µM | NCI-H23 15.3 µM | HT-29 17.7 µM | HCT-116 16.6 µM | TK-10 44.7 µM | RXF 393 16.9 µM | ACHN 20.3 µM | A498 18.2 µM | SF-295 40.1 µM | NCI-H522 18.3 µM | SN12C 17.4 µM | OVCAR-8 20.5 µM | CCRF-CEM 26.2 µM | SK-OV-3 42.6 µM

O=C(Cc1ccccc1)N/N=C(/c1nc2ccc([N+](=O)[O-])cc2nc1O)C(O)c1ccc(C(O)/C(=N/NC(=O)Cc2ccccc2)c2nc3ccc([N+](=O)[O-])cc3nc2O)cc1 (configuration not stated)
inactive: SNB-19 > 100 µM | UACC-62 35.6 µM | NCI-H23 > 100 µM | HT-29 53.8 µM | HCT-116 48.8 µM | RPMI-8226 21 µM | TK-10 48.1 µM | RXF 393 > 100 µM | ACHN 35.2 µM | A498 > 100 µM | SF-295 44.9 µM | NCI-H522 3.3 µM | SN12C > 100 µM | OVCAR-8 80.4 µM | CCRF-CEM 7.26 µM | SK-OV-3 > 100 µM

CCOC(=O)N1N=NC2C3OC(C[C@@]3(C#N)OC(C)=O)[C@H]21 (some centres not stated)
inactive: UO-31 > 100 µM | SNB-19 > 100 µM | UACC-62 > 100 µM | NCI-H23 > 100 µM | HT-29 > 100 µM | HCT-116 > 100 µM | RPMI-8226 > 100 µM | TK-10 > 100 µM | RXF 393 > 100 µM | ACHN > 100 µM | SF-295 > 100 µM | NCI-H522 > 100 µM | SN12C > 100 µM | OVCAR-8 > 100 µM | CCRF-CEM > 100 µM | SK-OV-3 > 100 µM

COCCCNC(=O)CC(=O)NCCCOC
inactive: UO-31 > 100 µM | SNB-19 > 100 µM | UACC-62 > 100 µM | NCI-H23 > 100 µM | HT-29 > 100 µM | HCT-116 > 100 µM | RPMI-8226 > 100 µM | TK-10 > 100 µM | RXF 393 > 100 µM | ACHN > 100 µM | A498 > 100 µM | SF-295 > 100 µM | NCI-H522 > 100 µM | SN12C > 100 µM | OVCAR-8 > 100 µM | CCRF-CEM > 100 µM

Cc1ccc([N+](=O)[O-])cc1NC(=O)/C(CC(=O)c1sc(C(N)=S)nc1C)=N\N
inactive: UO-31 48.1 µM | SNB-19 > 100 µM | UACC-62 > 100 µM | NCI-H23 31.7 µM | HT-29 72.3 µM | HCT-116 71 µM | RPMI-8226 > 100 µM | TK-10 > 100 µM | RXF 393 > 100 µM | ACHN 96.2 µM | A498 > 100 µM | SF-295 75.7 µM | NCI-H522 20.9 µM | OVCAR-8 > 100 µM | CCRF-CEM 26.9 µM | SK-OV-3 44.1 µM

O=C(/C=C/c1ccccc1)NC1C=Nc2ccc([N+](=O)[O-])cc2NC1=O (configuration not stated)
inactive: UO-31 48.9 µM | SNB-19 > 100 µM | UACC-62 44.1 µM | NCI-H23 76.4 µM | HT-29 73.1 µM | HCT-116 96.6 µM | TK-10 > 100 µM | RXF 393 > 100 µM | ACHN 26.2 µM | A498 > 100 µM | SF-295 30.3 µM | NCI-H522 6.01 µM | SN12C > 100 µM | OVCAR-8 > 100 µM | CCRF-CEM 17.4 µM | SK-OV-3 > 100 µM

CCOC(=O)c1[nH]c2cc(OC)c(OC)cc2c1CN(C)C
inactive: UO-31 > 100 µM | SNB-19 > 100 µM | UACC-62 > 100 µM | NCI-H23 > 100 µM | HT-29 > 100 µM | HCT-116 > 100 µM | RPMI-8226 > 100 µM | TK-10 > 100 µM | RXF 393 > 100 µM | ACHN > 100 µM | A498 > 100 µM | SF-295 > 100 µM | SN12C > 100 µM | OVCAR-8 > 100 µM | CCRF-CEM > 100 µM | SK-OV-3 > 100 µM

CC(=O)c1ccc(NC(=O)C(=O)Nn2c(S)nc3ccccc3c2=O)cc1
inactive: UO-31 > 100 µM | SNB-19 > 100 µM | UACC-62 > 100 µM | NCI-H23 > 100 µM | HT-29 > 100 µM | HCT-116 > 100 µM | RPMI-8226 > 100 µM | TK-10 > 100 µM | RXF 393 > 100 µM | ACHN > 100 µM | A498 > 100 µM | SF-295 > 100 µM | NCI-H522 > 100 µM | SN12C > 100 µM | OVCAR-8 > 100 µM | SK-OV-3 > 100 µM
